# Laboratory results taken from US20250154288A1, “CYTOTOXICITY TARGETING CHIMERAS FOR C-C CHEMOKINE RECEPTOR 2-EXPRESSING CELLS” (GLAXOSMITHKLINE INTELLECTUAL PROPERTY DEVELOPMENT LIMITED, priority 2022, published 2025).
# Counter-ions that a name gives are not always drawn.
# Tests used:
# [1] = target: T1, CHOK1 cells engineered to overexpress human CCR2 (Homo sapiens, UniProt P41597); experiment: Antibody Dependent Cellular Cytotoxicity (ADCC) Reporter Assay; type: cell-based; conditions: with anti-cotinine antibody (human IgG1 Fc, S239D/I332E); Jurkat FcγRIIIa NFAT-luciferase reporter cells; average if several runs; read-out: ADCC Reporter Assay pEC50 (converted)
# T1 construct: expressed in transfected cells; host or cells: CHOK1
# In short: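 CHOK1-hCCR2 target cells co-incubated ~12-18 h with compound (1 pM–10 μM), anti-cotinine rabbit/human IgG1 S239D/I332E antibody (0.01–200 μg/mL) and Jurkat FcγRIIIa NFAT-luciferase reporter cells. Luminescence signal:background versus no-compound wells; EC50 from four-parameter fit, reported as pEC50, averaged over runs.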
# [2] = Blood drug concentration analysis (LC-MS/MS) in In Vivo Depletion Assay; conditions: human CCR2 (hCCR2) knock-in, 057 background, mouse, whole blood, hCCR2 knock-in mice, IV 0.1 mpk compound + 10 mpk anti-cotinine antibody, 48 hours post-dose, read-out: Exposure of Compound of Formula (I) 48 hours post-dose
# Method: Human CCR2 (hCCR2) knock-in mice (057 background) were dosed intravenously with a PBS solution containing a compound of Formula (I) to measure depletion of CCR2 expressing cells in peripheral blood. Peripheral blood from IV dosed mice was also analyzed to determine PK properties of the ARM compounds of Formula (I).
# Administration to Animal: Solution formulation of antibody and compound of Formula (I) was injected (bolus injection) to the restrained mouse in the right/left lateral tail vein. Animals were dosed with 0.1 milligram per kilogram (mpk) of the compound of Formula (I) and 10 mpk of the anti-cotinine antibody.
# Collection of Blood for PK: Blood was collected at time points 0.25 hour, 2 hours, and […] following administration (50 μL/time point) through retro-orbital bleeding under mild isoflurane anesthesia.
# Terminal bleeding at end of experiment (48 hr): Approximately 250 μL of blood in K2EDTA tube and approximately 250 μL of blood in SST (serum separation tube) was collected from each mouse through retro-orbital bleeding under deep isoflurane anesthesia. After bleeding, each mouse was sacrificed by cervical dislocation. The blood distribution at termination was determined as follows: • For PK: 50 μL of K2EDTA blood was transferred to another tube for PK • Flow cytometry: Remaining blood (˜200 μL) was used for flow cytometry analysis. • For serum collection: serum separator tubes (BD) were centrifuged at 4° C., 5000 rpm for 15 minutes. Approximately 100 μL serum was separated and stored at −80° C. for further usage. • Blood drug concentration: Samples collected at the various timepoints (0.25 hr, 2 hr, 24 and 48 hr) were analyzed to determine blood drug concentration.
# Drug concentration in blood samples was determined by an LC-MS/MS-based bioanalytical method developed at Syngene. Samples were analyzed on Q-Trap, API-5500 LC-MS/MS system coupled with Exion UHPLC system from SCIEX, USA operated in multiple reaction monitoring mode employing electrospray ionization technique in positive polarity. Analyte and internal standard peaks were resolved on Synergi Polar, 75×2.0 mm, 4μ column using mobile phase 10 mM Ammonium acetate in Milli-Q water as phase A and 0.1% Formic acid in acetonitrile as Phase B. Gradient elution was performed with initial composition 95% Phase A at 0.0 min, holding it for 0.2 minutes, ramping to 5% by 1.0 minute, keeping the same for next 0.5 minutes and coming back to 95% by 1.6 minutes. The total run time was 2 minutes.
# Working dilutions for calibration curve and quality control standards were prepared by serially diluting 20 mg/mL stock solution with DMSO. Spiked concentrations for calibration curve in the whole blood ranged from 1 ng/mL to 1000 ng/mL. The working solution of internal standard (Verapamil, 25 ng/mL) was prepared in acetonitrile. 10 μL of the study sample and calibration curve, quality control, and blank whole blood samples were aliquoted in 96 deep well plates for processing. 10 μL of Milli-Q water was added to all the samples and briefly vortexed to initiate complete hemolysis. 10 μL of 20 mM dithiothreitol (OTT) was added to all the samples and incubated for 30 minutes at 37° C. The addition of DTT enhanced the recovery of ARM compounds of Formula (I) from the biological matrix. 300 μL of working internal standard solution was added to all samples except total blank and wash samples, where 300 μL of acetonitrile was added. All the samples were vortex mixed for 5 minutes, followed by centrifugation at 4000 rpm for 10 minutes at 4° C. Supernatants were transferred to the loading plate and injected 3 μL to LC-MS/MS system for analysis. The results are shown below in Table 4 and are reported as compound exposure 48 hours post-dose
smiles,measurement,setting,value
"CO[C@@H]1COCC[C@@H]1N[C@@H]1CC[C@](CCCNC(=O)CCOCCOCCOCCOCCOCCOCCOCCOCCOCCOCCOCCOCCNC(=O)[C@H]2CC(=O)N(C)[C@@H]2c2cccnc2)(C(=O)N2CCc3ncc(C(F)(F)F)cc3C2)C1 [Example 1, (2S,3S)—N-(43-((1S,3R)-3-(((3S,4S)-3-methoxytetrahydro-2H-pyran-4-yl)amino)-1-(3-(trifluoromethyl)-5,6,7,8-tetrahydro-1,6-naphthyridine-6-carbonyl)cyclopentyl)-39-oxo-3,6,9,12,15,18,21,24,27,30,33,36-dodecaoxa-40-azatritetracontyl)-1-methyl-5-oxo-2-(pyridin-3-yl)pyrrolidine-3-carboxamide]",EC50,[1],2.51 nM
same,concentration at 48 h,[2],55.7 ng/mL
"CO[C@@H]1COCC[C@@H]1N[C@@H]1CC[C@](CCC2CCN(C(=O)[C@H]3CC[C@H](NC(=O)CCCO[C@H]4CC[C@H](OCCNC(=O)[C@H]5CC(=O)N(C)[C@@H]5c5cccnc5)CC4)CC3)CC2)(C(=O)N2CCc3ncc(C(F)(F)F)cc3C2)C1 [Example 2, (2S,3S)—N-(2-(((1R,4S)-4-(4-(((1S,4R)-4-(4-(2-((1S,3R)-3-(((3S,4S)-3-Methoxytetrahydro-2H-pyran-4-yl)amino)-1-(3-(trifluoromethyl)-5,6,7,8-tetrahydro-1,6-naphthyridine-6-carbonyl)cyclopentyl)ethyl)piperidine-1-carbonyl)cyclohexyl)amino)-4-oxobutoxy)cyclohexyl)oxy)ethyl)-1-methyl-5-oxo-2-(pyridin-3-yl)pyrrolidine-3-carboxamide]",EC50,[1],12.6 nM
same,concentration at 48 h,[2],53.2 ng/mL
"CO[C@@H]1COCC[C@@H]1N[C@@H]1CC[C@](CCCNC(=O)[C@H]2CC[C@H](NC(=O)CCCO[C@H]3CC[C@H](OCCNC(=O)[C@H]4CC(=O)N(C)[C@@H]4c4cccnc4)CC3)CC2)(C(=O)N2CCc3ncc(C(F)(F)F)cc3C2)C1 [Example 3, (2S,3S)-N-(2-(((1R,4S)-4-(4-(((1S,4R)-4-((3-((1S,3R)-3-(((3S,4S)-3-Methoxytetrahydro-2H-pyran-4-yl)amino)-1-(3-(trifluoromethyl)-5,6,7,8-tetrahydro-1,6-naphthyridine-6-carbonyl)cyclopentyl)propyl)carbamoyl)cyclohexyl)amino)-4-oxobutoxy)cyclohexyl)oxy)ethyl)-1-methyl-5-oxo-2-(pyridin-3-yl)pyrrolidine-3-carboxamide]",EC50,[1],0.631 nM
same,concentration at 48 h,[2],31.3 ng/mL
"CO[C@@H]1COCC[C@@H]1N[C@@H]1CC[C@](CCCNC(=O)[C@H]2CC[C@@H](NC(=O)CCCO[C@H]3CC[C@@H](OCCNC(=O)[C@H]4CC(=O)N(C)[C@@H]4c4cccnc4)CC3)CC2)(C(=O)N2CCc3ncc(C(F)(F)F)cc3C2)C1 [Example 4, (2S,3S)-N-(2-(((1S,4R)-4-(4-(((1R,4S)-4-((3-((1S,3R)-3-(((3S,4S)-3-Methoxytetrahydro-2H-pyran-4-yl)amino)-1-(3-(trifluoromethyl)-5,6,7,8-tetrahydro-1,6-naphthyridine-6-carbonyl)cyclopentyl)propyl)carbamoyl)cyclohexyl)amino)-4-oxobutoxy)cyclohexyl)oxy)ethyl)-1-methyl-5-oxo-2-(pyridin-3-yl)pyrrolidine-3-carboxamide, Formic acid salt]",EC50,[1],0.794 nM
same,concentration at 48 h,[2],26.6 ng/mL
"CO[C@@H]1COCC[C@@H]1N[C@@H]1CC[C@](CCCCNC(=O)[C@H]2CC[C@H](NC(=O)CCCO[C@H]3CC[C@H](OCCNC(=O)[C@H]4CC(=O)N(C)[C@@H]4c4cccnc4)CC3)CC2)(C(=O)N2CCc3ncc(C(F)(F)F)cc3C2)C1 [Example 7, (2S,3S)-N-(2-(((1R,4S)-4-(4-(((1S,4R)-4-((4-((1S,3R)-3-(((3S,4S)-3-Methoxytetrahydro-2H-pyran-4-yl)amino)-1-(3-(trifluoromethyl)-5,6,7,8-tetrahydro-1,6-naphthyridine-6-carbonyl)cyclopentyl)butyl)carbamoyl)cyclohexyl)amino)-4-oxobutoxy)cyclohexyl)oxy)ethyl)-1-methyl-5-oxo-2-(pyridin-3-yl)pyrrolidine-3-carboxamide]",EC50,[1],2.51 nM
same,concentration at 48 h,[2],54.4 ng/mL
"CO[C@@H]1COCC[C@@H]1N[C@@H]1CC[C@](CCNC(=O)[C@H]2CC[C@H](NC(=O)CCCO[C@H]3CC[C@H](OCCNC(=O)[C@H]4CC(=O)N(C)[C@@H]4c4cccnc4)CC3)CC2)(C(=O)N2CCc3ncc(C(F)(F)F)cc3C2)C1 [Example 8, (2S,3S)-N-(2-(((1R,4S)-4-(4-(((1R,4R)-4-((2-((1R,3R)-3-(((3S,4S)-3-Methoxytetrahydro-2H-pyran-4-yl)amino)-1-(3-(trifluoromethyl)-5,6,7,8-tetrahydro-1,6-naphthyridine-6-carbonyl)cyclopentyl)ethyl)carbamoyl)cyclohexyl)amino)-4-oxobutoxy)cyclohexyl)oxy)ethyl)-1-methyl-5-oxo-2-(pyridin-3-yl)pyrrolidine-3-carboxamide]",EC50,[1],1.58 nM
same,concentration at 48 h,[2],74.9 ng/mL
"CO[C@@H]1COCC[C@@H]1N[C@@H]1CC[C@](CCCCCNC(=O)[C@H]2CC[C@H](NC(=O)CCCO[C@H]3CC[C@H](OCCNC(=O)[C@H]4CC(=O)N(C)[C@@H]4c4cccnc4)CC3)CC2)(C(=O)N2CCc3ncc(C(F)(F)F)cc3C2)C1 [Example 9, (2S,3S)-N-(2-(((1R,4S)-4-(4-(((1S,4R)-4-((5-((1S,3R)-3-(((3S,4S)-3-Methoxytetrahydro-2H-pyran-4-yl)amino)-1-(3-(trifluoromethyl)-5,6,7,8-tetrahydro-1,6-naphthyridine-6-carbonyl)cyclopentyl)pentyl)carbamoyl)cyclohexyl)amino)-4-oxobutoxy)cyclohexyl)oxy)ethyl)-1-methyl-5-oxo-2-(pyridin-3-yl)pyrrolidine-3-carboxamide]",EC50,[1],1.26 nM
same,concentration at 48 h,[2],49.8 ng/mL
"CO[C@@H]1COCC[C@@H]1N[C@@H]1CC[C@](COCCNC(=O)[C@H]2CC[C@H](NC(=O)CCCO[C@H]3CC[C@H](OCCNC(=O)[C@H]4CC(=O)N(C)[C@@H]4c4cccnc4)CC3)CC2)(C(=O)N2CCc3ncc(C(F)(F)F)cc3C2)C1 [Example 11, (2S,3S)-N-(2-(((1R,4S)-4-(4-(((1S,4R)-4-((2-(((1S,3R)-3-(((3S,4S)-3-Methoxytetrahydro-2H-pyran-4-yl)amino)-1-(3-(trifluoromethyl)-5,6,7,8-tetrahydro-1,6-naphthyridine-6-carbonyl)cyclopentyl)methoxy)ethyl)carbamoyl)cyclohexyl)amino)-4-oxobutoxy)cyclohexyl)oxy)ethyl)-1-methyl-5-oxo-2-(pyridin-3-yl)pyrrolidine-3-carboxamide]",EC50,[1],2.51 nM
same,concentration at 48 h,[2],85.1 ng/mL
"CO[C@@H]1COCC[C@@H]1N[C@@H]1CC[C@@](C(=O)N2Cc3cc(C(F)(F)F)cnc3[C@H](NC(=O)[C@H]3CC[C@H](NC(=O)CCCO[C@H]4CC[C@H](OCCNC(=O)[C@H]5CC(=O)N(C)[C@@H]5c5cccnc5)CC4)CC3)C2)(C(C)C)C1 [Example 14, (2S,3S)-N-(2-(((1R,4S)-4-(4-(((1R,4R)-4-(((R)-6-((1S,3R)-1-isopropyl-3-(((3S,4S)-3-methoxytetrahydro-2H-pyran-4-yl)amino)cyclopentane-1-carbonyl)-3-(trifluoromethyl)-5,6,7,8-tetrahydro-1,6-naphthyridin-8-yl)carbamoyl)cyclohexyl)amino)-4-oxobutoxy)cyclohexyl)oxy)ethyl)-1-methyl-5-oxo-2-(pyridin-3-yl)pyrrolidine-3-carboxamide, 3Formic acid salt]",EC50,[1],< 0.002 nM
same,concentration at 48 h,[2],41.4 ng/mL
